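Protocol summary: plate cells (96-well), add compound at 5 concentrations, incubate 48 h, interpolate endpoints linearly. The concentration for 50% growth inhibition is given as GI50. Definition used: TGI = concentration required for complete inhibition of growth.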 Some results are limits rather than exact numbers.

Among the test systems are A549 NSCLC; EKVX NSCLC; OVCAR-3 ovarian; RPMI-8226 leukemia; SF-539 CNS; SN12C renal; TK-10 renal; U251 CNS; MDA-MB-231 breast; PC-3 prostate.
What all share (assay): growth of human tumour cells (NCI), 48 h

On to `CC(=O)NC(C=O)C(O[C@H](C)C(=O)NC(C)C(=O)NC(CCC(N)=O)C(=O)OCc1ccccc1)C(O)C(O)COC(=O)CCNc1c2ccccc2nc2cccc([N+](=O)[O-])c12` (stereo partly drawn), for which the TGI in the assay with A549 NSCLC was 5.13 µM; in the assay with EKVX NSCLC, 22.3 µM; in the assay with OVCAR-3 ovarian, 4.01 µM; in the assay on RPMI-8226 leukemia, 4.39 µM; with SF-539 CNS it was 20.2 µM; with SN12C renal it was 5.62 µM. The TGI stood at 53.6 µM in the assay with TK-10 renal and 7.14 µM in the assay with U251 CNS.
`NC(=O)NC1C(C(=O)O)N(Cc2ccccc2)C(=O)N1Cc1ccccc1` (stereo not drawn): the TGI with A549 NSCLC, in the assay with EKVX NSCLC, in the assay with OVCAR-3 ovarian, in the assay on RPMI-8226 leukemia, in the assay with SF-539 CNS and with TK-10 renal was over 100 µM throughout. In the assay with U251 CNS, this compound showed a TGI of over 100 µM.
On to `O=C1CCCCC12CCC/C2=N\O` (stereo not drawn), for which the TGI in the assay on A549 NSCLC, in the assay on EKVX NSCLC, in the assay with OVCAR-3 ovarian, with RPMI-8226 leukemia, with SF-539 CNS and with SN12C renal was over 100 µM each time. Moreover, the TGI with TK-10 renal and in the assay with U251 CNS was over 100 µM each time.
As for `O=C(NCCCl)SCCO`, the TGI in the assay on A549 NSCLC, in the assay with EKVX NSCLC, in the assay on OVCAR-3 ovarian, in the assay with RPMI-8226 leukemia, with SF-539 CNS and in the assay on SN12C renal was over 100 µM in each case. The TGI with TK-10 renal and in the assay with U251 CNS was over 100 µM each time.
For the compound `O=C1OC(=O)C2C3C=CC(C12)C1C2C=CC2C31` (stereo not drawn), the TGI in the assay on A549 NSCLC, in the assay on EKVX NSCLC, with SF-539 CNS, with SN12C renal, in the assay with TK-10 renal and in the assay on U251 CNS was over 100 µM each time.
Turning to `CC([O-])=C1C(=O)c2ccccc2C1=O.CC([O-])=C1C(=O)c2ccccc2C1=O.CC[O-].CC[O-].[Ti+4]`, the GI50 in the assay on EKVX NSCLC, in the assay with OVCAR-3 ovarian, with RPMI-8226 leukemia, with SF-539 CNS, with SN12C renal and with U251 CNS was over 100 µM throughout. Moreover, the TGI in the assay on EKVX NSCLC, in the assay with OVCAR-3 ovarian, in the assay on RPMI-8226 leukemia, with SF-539 CNS, with SN12C renal and with U251 CNS was over 100 µM each time.
For the compound `O=c1[nH]cnc2c(COCCO)c[nH]c12`, the TGI with EKVX NSCLC, in the assay with OVCAR-3 ovarian, with RPMI-8226 leukemia, with SF-539 CNS, in the assay with SN12C renal and in the assay on TK-10 renal was over 100 µM in each case. This compound showed a TGI in the assay with U251 CNS of over 100 µM.
In the case of `N#Cc1cccc(C=NC23CC4CC(CC(C4)C2)C3)c1`, the TGI in the assay on A549 NSCLC, in the assay with EKVX NSCLC, in the assay on OVCAR-3 ovarian, in the assay with RPMI-8226 leukemia, in the assay with SF-539 CNS and in the assay with SN12C renal was over 100 µM in each case. Moreover, the TGI in the assay with TK-10 renal and in the assay on U251 CNS was over 100 µM in each case.
With `O=Cc1ccc(-c2ccc(-c3nc4ccccc4s3)cc2)s1`, the GI50 in the assay with A549 NSCLC was over 100 µM; in the assay on EKVX NSCLC it was 42.1 µM; in the assay with MDA-MB-231 breast, 17.6 µM; with OVCAR-3 ovarian it was 27.2 µM; in the assay on PC-3 prostate it was 28.7 µM; with SF-539 CNS, 30.7 µM. Moreover, the GI50 in the assay on TK-10 renal is 70.2 µM; in the assay on U251 CNS it was 51.9 µM. The TGI in the assay on A549 NSCLC was over 100 µM; with EKVX NSCLC, over 100 µM; with MDA-MB-231 breast it was 78.2 µM; with OVCAR-3 ovarian it was 98.3 µM; with PC-3 prostate it was over 100 µM; in the assay with SF-539 CNS, over 100 µM. The TGI in the assay with TK-10 renal and in the assay on U251 CNS was over 100 µM in each case.
Turning to `COCCOCCOCCOc1cccc2c1C(=O)c1cccc(OCCOCCOCCOC)c1C2=O`, the TGI in the assay on A549 NSCLC, in the assay with EKVX NSCLC, in the assay on OVCAR-3 ovarian, in the assay on RPMI-8226 leukemia, in the assay with SF-539 CNS and with SN12C renal was over 100 µM in each case. Also, the TGI with TK-10 renal and with U251 CNS was over 100 µM throughout.
With `COC(=O)Cc1cc(=O)[nH]c2c1C(=O)CCC2`, the TGI in the assay on A549 NSCLC, in the assay with EKVX NSCLC, in the assay on OVCAR-3 ovarian, with RPMI-8226 leukemia, with SF-539 CNS and in the assay with SN12C renal was over 100 µM in each case. Also, the TGI in the assay on TK-10 renal and with U251 CNS was over 100 µM in each case.
In the case of `Cc1ccc(S(=O)(=O)N/N=C/C(C)C)cc1`, the TGI with A549 NSCLC, in the assay on EKVX NSCLC, with OVCAR-3 ovarian, in the assay on RPMI-8226 leukemia, in the assay with SF-539 CNS and in the assay with SN12C renal was over 100 µM throughout. Further, the TGI in the assay on TK-10 renal and in the assay with U251 CNS was over 100 µM each time.
With `CN(CCC(=O)/C(=C\c1ccccc1)c1ccc(Cl)cc1)Cc1ccccc1`, the GI50 was 12.8 µM in the assay on A549 NSCLC; 5.37 µM with EKVX NSCLC; 2.03 µM with OVCAR-3 ovarian; 2.93 µM in the assay on PC-3 prostate; 2.74 µM in the assay with SF-539 CNS; 2.38 µM in the assay on SN12C renal. Further, the GI50 with TK-10 renal was 2.34 µM; in the assay on U251 CNS, 1.9 µM. The TGI was 31.9 µM with A549 NSCLC; 18.8 µM with EKVX NSCLC; 5.04 µM in the assay with OVCAR-3 ovarian; 9.49 µM with PC-3 prostate; 6.88 µM in the assay with SF-539 CNS; 6.39 µM in the assay on SN12C renal. The TGI with TK-10 renal was found to be 5.43 µM; in the assay on U251 CNS it was 4.35 µM.
Consider `CCCCCCCCCCCc1c(O)c(=O)c2c(oc3c(=O)c(CCCCCCCCCCC)c(O)c(=O)c3n2-c2ccc(N(C)C)cc2)c1=O`, for which the TGI with A549 NSCLC was 52.4 µM; in the assay on EKVX NSCLC, 67.7 µM; in the assay with OVCAR-3 ovarian it was 38.6 µM; in the assay on RPMI-8226 leukemia, over 100 µM; in the assay on SF-539 CNS it was 39.7 µM; in the assay on SN12C renal, 36.8 µM. Moreover, the TGI stood at 33 µM with TK-10 renal and 44.1 µM with U251 CNS.

The values above are taken from PubChem BioAssay (NCI).
